SMILES strings stand for the structures. Structures can show the parent of a compound that is named as a salt. Bounds are passed on as bounds.

In one test the test system is progranulin (PGRN) secretion, BV-2 cells. Put plainly: PGRN assay: progranulin induction cellular assay (ELISA of secreted mouse PGRN).
Conditions: not given
It is filed as cell-based. Summed up: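 Progranulin induction measured in BV-2 cells plated at about 80% confluence the day before, given 1 h to attach, then incubated 16 h. Secreted mouse PGRN quantified by ELISA.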
Usually EC50 stands for the concentration needed to bring the measured effect to its halfway point. Compound `N#Cc1ccc2c(c1)[C@H](c1ccc(F)cc1)N(C(=O)O[C@@H]1CN3CCC1CC3)CC2` [Compound 2035] gave an EC50 greater than 10000 nM. The same measure, in the same setting: as for `O=C(O[C@H]1CN2CCC1(F)CC2)N1CCc2ccccc2[C@@H]1c1ccc(F)cc1` (single isomer, unassigned) [Compound 2127], the figure is 1860 nM; as for `O=C(O[C@@H]1CN2CCC1(F)CC2)N1CCc2ccccc2[C@@H]1c1ccc(F)cc1` (single isomer, unassigned) [Compound 2126], 1250 nM.

Still in this test, the particulars now being: Mus musculus, BV-2.
`O=C(O[C@@H]1CN2CCC1CC2)N1CCc2ccccc2C1c1ccc2[nH]c(=O)sc2c1` (some centres unmarked) [Compound 2011]: the EC50 is greater than 10000 nM.

With `C#CCOc1ccc2c(c1)CCN(C(=O)O[C@@H]1CN3CCC1CC3)[C@H]2c1ccc(F)cc1` [Compound 2082], the response was half-maximal at 7460 nM (EC50). The compound `COC(=O)c1ccc2c(c1)CCN(C(=O)O[C@@H]1CN3CCC1CC3)[C@H]2c1ccc(F)cc1` [Compound 2086] showed an EC50 greater than 10000 nM. Regarding `CS(=O)(=O)c1ccc2c(c1)[C@@H](c1ccc(F)cc1)N(C(=O)O[C@@H]1CN3CCC1CC3)CC2` [Compound 2032], the EC50 is greater than 10000 nM. For the compound `CS(=O)(=O)c1ccc2c(c1)CCN(C(=O)O[C@@H]1CN3CCC1CC3)[C@@H]2c1ccc(F)cc1` [Compound 2026], the EC50 was greater than 10000 nM.

Still in this test, the particulars now being: Mus musculus, BV-2, PGRN assay, Table C; secreted mouse PGRN in cell culture medium, ELISA.
The compound `CNC(=O)c1ccc2c(c1)CCN(C(=O)N[C@@H]1CN3CCC1CC3)[C@@H]2c1ccc(F)cc1` [Compound 2091] displayed a concentration giving a half-maximal response (EC50) greater than 10000 nM. In turn, `COCCOCCOc1ccc(COc2ccc([C@@H]3c4ccccc4CCN3C(=O)OCC34CCN(CC3)CC4)cc2)cc1` [Compound 2047] returned an EC50 greater than 2690 nM. `CNC(=O)c1ccc2c(c1)CCN(C(=O)N[C@@H]1CN3CCC1CC3)[C@H]2c1ccc(F)cc1` [Compound 2090]: the EC50 was greater than 10000 nM. In turn, `CO[C@H](CC12CCN(CC1)CC2)C(=O)N1CCc2ccccc2[C@@H]1c1ccc(F)cc1` [Compound 2028] gave an EC50 greater than 10000 nM. For `COC(=O)c1ccc2c(c1)[C@H](c1ccc(F)cc1)N(C(=O)OCC13CCN(CC1)CC3)CC2` [Compound 2044], the EC50 is 4710 nM. Still for that read-out and setting: then `O=C(O[C@H]1CCNC1)N1CCc2ccccc2[C@@H]1c1ccc(F)cc1` [Compound 2180, (1S)—((S)-pyrrolidin-3-yl)-1-(4-fluorophenyl)-3,4-dihydroisoquinoline-2(1H)-carboxylate], with 83 nM.

`CS(=O)(=O)c1ccc2c(c1)[C@@H](c1ccc(F)cc1)N(C(=O)N[C@@H]1CN3CCC1CC3)CC2` [Compound 2057] displayed an EC50 greater than 10000 nM. On the same count and under the same terms, then `O=S(=O)(CCC12CCN(CC1)CC2)N1CCc2ccccc2[C@@H]1c1ccc(F)cc1` [Compound 2058, (S)-4-(2-(1-(4-fluorophenyl)-3,4-dihydroisoquinolin-2(1H)-ylsulfonyl)ethyl)quinuclidine], with 3000 nM; and `CN1CC2(CC[C@H]2OC(=O)N2CCc3ccccc3[C@@H]2c2ccc(F)cc2)C1` [Compound 2022], with 960 nM; and `O=C(OCC12CCN(CC1)CC2)N1CCc2ccccc2[C@H]1c1cc(F)c(F)c(F)c1` [Compound 2148], with 8830 nM. Compound `N#Cc1ccc2c(c1)CCN(C(=O)N[C@@H]1CN3CCC1CC3)[C@@H]2c1ccc(F)cc1` [Compound 2015] yielded an EC50 of 1500 nM. Compared with the last compound, the EC50 is about 5.9-fold lower. Same read-out and setting: as for `O=C(OC1CC2CCN(C2)C1)N1CCc2ccccc2[C@@H]1c1ccc(F)cc1` (some centres unmarked) [Compound 2002], the figure is 748 nM; as for `O=C(O[C@@H]1CCNC1)N1CCc2ccccc2[C@@H]1c1ccc(F)cc1` [Compound 2179, (1S)—((R)-pyrrolidin-3-yl)-1-(4-fluorophenyl)-3,4-dihydroisoquinoline-2(1H)-carboxylate], 120 nM.

Take `O=C(NCc1ccncc1)N1CCc2ccccc2[C@@H]1c1ccc(F)cc1` [Compound 2152]: it took 6400 nM to reach a half-maximal effect (EC50). On the same count and under the same terms, then `CS(=O)(=O)c1ccc2c(c1)CCN(C(=O)N[C@@H]1CN3CCC1CC3)[C@H]2c1ccc(F)cc1` [Compound 2040, 1-(4-fluorophenyl)-6-(methylsulfonyl)-N—((S)-quinuclidin-3-yl)-3,4-dihydroisoquinoline-2(1H)-carboxamide], with greater than 10000 nM; and `CN1CCC(COC(=O)N2CCc3ccccc3[C@@H]2c2ccc(F)cc2)CC1` [Compound 2173], with 3220 nM; and `O=C(N[C@@H]1CCN2CCC[C@H]12)N1CCc2ccccc2[C@@H]1c1ccc(F)cc1` [Compound 2048], with 1900 nM. Still for that read-out and setting: as for `COCCOCCOc1ccc(COc2ccc([C@H]3c4ccccc4CCN3C(=O)OCC34CCN(CC3)CC4)cc2)cc1` [Compound 2046], the figure is 1720 nM.

As to `O=C(OCC1CCN(CC(F)(F)F)CC1)N1CCc2ccccc2[C@@H]1c1ccc(F)cc1` [Compound 2107], the EC50 is greater than 10000 nM. Still for that read-out and setting: as for `CNC(=O)c1ccc2c(c1)[C@H](c1ccc(F)cc1)N(C(=O)NCC13CCN(CC1)CC3)CC2` [Compound 2119, (S)-1-(4-fluorophenyl)-N7-methyl-N2-(quinuclidin-4-ylmethyl)-3,4-dihydroisoquinoline-2,7(1H)-dicarboxamide], the figure is greater than 10000 nM; as for `O=S(=O)(N[C@@H]1CN2CCC1CC2)N1CCc2ccccc2[C@@H]1c1ccc(F)cc1` [Compound 2010], greater than 10000 nM; as for `C#CCOc1ccc2c(c1)CCN(C(=O)NCC13CCN(CC1)CC3)[C@H]2c1ccc(F)cc1` [Compound 2084], greater than 10000 nM. The same measure, in the same setting: then `O=C([C@H](O)[C@@H]1CN2CCC1CC2)N1CCc2ccccc2[C@@H]1c1ccc(F)cc1` (stereo in doubt) [Compound 2075, 1-((S)-1-(4-fluorophenyl)-3,4-dihydroisoquinolin-2(1H)-yl)-2-hydroxy-2-(quinuclidin-3-yl)ethanone], with 895 nM; and `N#Cc1ccc2c(c1)[C@H](c1ccc(F)cc1)N(C(=O)N[C@@H]1CN3CCC1CC3)CC2` [Compound 2038, 7-cyano-1-(4-fluorophenyl)-N—((S)-quinuclidin-3-yl)-3,4-dihydroisoquinoline-2(1H)-carboxamide], with greater than 10000 nM. On the same count and under the same terms, then `CN1CCO[C@H](COC(=O)N2CCc3ccccc3[C@@H]2c2ccc(F)cc2)C1` [Compound 2004], with 1050 nM.

Staying with this test, now noted: Mus musculus, BV-2, PGRN assay, Table D; secreted mouse PGRN in cell culture medium, ELISA.
On to `CN(C(=O)N1CCc2ccccc2[C@H]1c1ccc(F)cc1)[C@@H]1CCCNC1` (single isomer, unassigned) [Compound 2212], for which a half-maximal effect (EC50) was put at 3050 nM. The same measure, in the same setting: then `O=C(O[C@H]1CNCC1(F)F)N1CCc2ccccc2[C@@H]1c1ccc(F)cc1` [Compound 2241], with 8790 nM; and `O=C(NC[C@H]1CNCCO1)N1CCc2ccccc2[C@@H]1c1ccc(F)cc1` (single isomer, unassigned) [Compound 2210], with 860 nM. On the same count and under the same terms, as for `O=C(OC[C@@H]1CCN1)N1CCc2ccccc2[C@@H]1c1ccc(F)cc1` [Compound 2239, (S)-(S)-azetidin-2-ylmethyl 1-(4-fluorophenyl)-3,4-dihydroisoquinoline-2(1H)-carboxylate], the figure is 1140 nM; as for `CN1[C@H]2CC[C@@H]1[C@H](NC(=O)N1CCc3ccccc3[C@@H]1c1ccc(F)cc1)C2` (single isomer, unassigned) [Compound 2225], 1010 nM. Same read-out and setting: then `O=C(OC[C@]1(F)CCNC1)N1CCc2ccccc2[C@@H]1c1ccc(F)cc1` [Compound 2256], with 170 nM; and `O=C(N[C@H]1CCNC1)N1CCc2ccccc2[C@@H]1c1ccc(F)cc1` [Compound 2222], with 940 nM. Compound `O=C(O[C@H]1CNC[C@H]1F)N1CCc2ccccc2[C@@H]1c1ccc(F)cc1` [Compound 2362] gave an EC50 greater than 3160 nM. Compound `O=C(N1CCCNCC1)N1CCc2ccccc2[C@@H]1c1ccc(F)cc1` [Compound 2264, (S)-(1,4-diazepan-1-yl)(1-(4-fluorophenyl)-3,4-dihydroisoquinolin-2(1H)-yl)methanone] registered an EC50 of 1060 nM.

As to `O=C(N[C@@H]1CNCC12CC2)N1CCc2ccccc2[C@@H]1c1ccc(F)cc1` [Compound 2281], a half-maximal effect (EC50) was put at 273 nM. Turning to `N[C@@H]1CCN(C(=O)N2CCc3ccccc3[C@@H]2c2ccc(F)cc2)C1` [Compound 2287], the EC50 was determined as 351 nM. `O=C(N1CC[C@]2(CNCCO2)C1)N1CCc2ccccc2[C@@H]1c1ccc(F)cc1` (single isomer, unassigned) [Compound 2326] came in with an EC50 of 189 nM. Same read-out and setting: then `N[C@H]1CCN(C(=O)N2CCc3ccccc3[C@@H]2c2ccc(F)cc2)C1` [Compound 2284], with 806 nM; and `CN1[C@@H]2CC[C@H]1[C@H](NC(=O)N1CCc3ccccc3[C@@H]1c1ccc(F)cc1)C2` [Compound 2227], with 4150 nM; and `O=C1N[C@H](CNC(=O)N2CCc3ccccc3[C@@H]2c2ccc(F)cc2)CO1` [Compound 2259, (S)-1-(4-fluorophenyl)-N—(((R)-2-oxooxazolidin-4-yl)methyl)-3,4-dihydroisoquinoline-2(1H)-carboxamide], with greater than 10000 nM.

Regarding `CN1CC[C@@H](OC(=O)N2CCc3ccccc3[C@@H]2c2ccc(F)cc2)C1` [Compound 2250, (R)-1-methylpyrrolidin-3-yl (S)-1-(4-fluorophenyl)-3,4-dihydroisoquinoline-2(1H)-carboxylate hydrochloride], the EC50 worked out at 100 nM. This counts as sub-micromolar.

Compound `CN1CCC(C(=O)C(=O)N2CCc3ccccc3[C@@H]2c2ccc(F)cc2)C1` (stereo partly drawn) [Compound 2274, 1-((S)-1-(4-fluorophenyl)-3,4-dihydroisoquinolin-2(1H)-yl)-2-(1-methylpyrrolidin-3-yl)ethane-1,2-dione] had an EC50 of 1400 nM. This EC50 lies about 14-fold higher than the previous one.

Still in this test, the particulars now being: PGRN assay, Table C; secreted mouse PGRN in cell culture medium, ELISA.
For the compound `O=C(OC1[C@@H]2CC3C[C@@H]1CN(C3)C2)N1CCc2ccccc2[C@@H]1c1ccc(F)cc1` (some centres unmarked) [Compound 2097], the EC50 was 2820 nM.

Still in this test, the particulars now being: PGRN assay, Table D; secreted mouse PGRN in cell culture medium, ELISA.
Compound `CN(C(=O)N1CCc2ccccc2[C@H]1c1ccc(F)cc1)[C@H]1CCNC1` (single isomer, unassigned) [Compound 2249] showed an EC50 greater than 10000 nM.

Staying with this test, now noted: mouse BV2 cells.
Consider `O=C(O[C@H]1CN2CCC1CC2)N1CCc2ccccc2[C@@H]1c1ccccc1` [Solifenacin, reference compound], for which the secretion of progranulin result was “causes the secretion of progranulin”.

Values taken from patent publication US20220251084A1, “PROGRANULIN MODULATORS AND METHODS OF USING THE SAME” (ARKUDA THERAPEUTICS, priority 2019, published 2022).
